Data as given in patent US12552783B2, “Modulators of proteolysis and associated methods of use” (Arvinas Operations, Inc., priority 2018, dated 2026).

Legend:
Type in all cases: cell-based
[1] = biological target: T1, KRas^G12C (Homo sapiens, UniProt P01116, G12C); experiment: Western blot of KRas G12C degradation and gel shift (FIGS. 2A and 2B); settings: for covalent modification of KRas^G12C, as seen by the gel shift: Western blot gel shift, FIGS. 2A and 2B; for degrader potency shown by Western blot: FIG. 2A / FIG. 2B
T1 construct: endogenous in cells

[2] = biological target: T2, KRas (Homo sapiens, UniProt P01116, G12C); experiment: KRas degradation in SW1573 cells by Western blot, normalized to GAPDH (data of Table 14)
Method in brief: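 SW1573 cells, homozygous for the KRas G12C mutation and maintained in DMEM with 10% FBS and 1% penicillin-streptomycin, were seeded in 12-well plates, allowed to attach overnight at 37° C. under 5% CO2, then serum-starved for 24 hours before compound exposure. KRas levels were measured by Western blot, normalized to GAPDH, and compared with DMSO controls to give percent degradation, DC50 and Dmax.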

[3] = biological target: T1, KRas^G12C; experiment: Western blot mobility shift of KRas after treating cells with bifunctional compound (FIGS. 2A and 2B); settings: for KRas degrader activity (representative Western blot): FIG. 2A / FIG. 2B; for covalent modification of KRas seen by gel shift: upper band is KRas and the bifunctional compound, lower band is KRas alone
Source text: FIGS. 2A and 2B show the result of treating cells with either a bifunctional compound alone or a bifunctional compound and an E3 ubiquitin ligase inhibitor, and then detecting the KRas protein on the gel. The mobility shift of KRas detection on the gel illustrates that the bifunctional compounds covalently modify KRas. The upper band is KRas and the bifunctional compound, while the lower band is KRas alone.

[4] = biological target: T2, KRas; experiment: KRas degradation in NCI-H2030 cells by Western blot, normalized to GAPDH (data of Table 14); design: host or cells: NCI-H2030
Method in brief: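 Degradation of endogenous homozygous G12C KRas is measured by immunoblot after serum starvation and compound exposure at three final concentrations (0.3, 1 and 3 μM). VHL-recruiting compounds are incubated 24 h and all others 72 h. Percent loss is calculated from GAPDH-normalized KRas relative to vehicle.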

[5] = biological target: T2, KRas; experiment: KRas degradation in H2030 cells by Western blot (data of Table 5); design: host or cells: NCI-H2030; settings: H2030 cells serum starved 24 hours, KRas immunoblot; for H2030 Degradation at 0.3 uM: treated 24 hours with 0.3 uM; for H2030 Degradation at 1 uM: treated 24 hours with 1 uM; for H2030 Degradation at 3 uM: treated 24 hours with 3 uM
Protocol: Cell Lines, Antibodies, and Reagents. NCI-H2030 (CRL-5914) and SW1573 (CRL-2170) cells were purchased from ATCC. Both cell lines are homozygous for the G12C mutation in KRas. NCI-H2030 cells were cultured in RPMI-1640 medium containing 1% penicillin-streptomycin and 10% fetal bovine serum (FBS). SW1573 cells were cultured in DMEM containing 1% penicillin-streptomycin and 10% FBS. The KRas detection antibody (Cat. No. LS-C175665) was purchased from LifeSpan Biosciences and was used at a dilution of 1:2000. GAPDH was detected using an antibody purchased from Cell Signaling Technology (Cat. No. 5174) and was diluted 1:3000. Secondary anti-mouse and anti-rabbit detection antibodies were purchased from Cell Signaling Technology (Cat. Nos. 7076 and 7074, respectively).
Compound Treatment and Western Blotting of the Data of Table 5. H2030 cells in 12-well plates were serum starved for 24 hours, and then treated with 0.3 uM, 1 uM, and 3 uM of the indicated bifunctional compound, for 24 hours. Cells were lysed in a Cell Signaling Technology Cell Lysis Buffer (Cat. No. #9803) supplemented with protease inhibitors, and proteins were separated by SDS-PAGE. KRas was detected by immunoblotting using the LSBio antibody (Cat. No. LS-C175665).
DC50 is the half-maximal degradation concentration—i.e., the concentration at which 50% degradation is observed. DMax is the maximum degradation efficacy is achieved—i.e., the maximal degradation observed) degradation data.

Structure (SMILES)	covalent modification of KRas^G12C, as seen by the gel shift [1]	degrader potency shown by Western blot [1]	KRas degrader activity (representative Western blot) [3]	covalent modification of KRas seen by gel shift [3]	H2030 Degradation at 0.3 uM [5]	H2030 Degradation at 1 uM [5]	H2030 Degradation at 3 uM [5]	other results
C=CC(=O)N1CCN(c2nc(O[C@H](C)CN3CCC(OCCOCCOCC(=O)N[C@H](C(=O)N4C[C@H](O)C[C@H]4C(=O)N[C@@H](C)c4ccc(-c5scnc5C)cc4)C(C)(C)C)CC3)nc3c(F)c(-c4cc(O)cc5ccccc45)c(Cl)cc23)CC1 [compound 399, (2S,4R)-1-((2S)-2-(2-(2-(2-((1-((2R)-2-((4-(4-acryloylpiperazin-1-yl)-6-chloro-8-fluoro-7-(3-hydroxynaphthalen-1-yl)quinazolin-2-yl)oxy)propyl)piperidin-4-yl)oxy)ethoxy)ethoxy)acetamido)-3,3-dimethylbutanoyl)-4-hydroxy-N-((S)-1-(4-(4-methylthiazol-5-yl)phenyl)ethyl)pyrrolidine-2-carboxamide]	covalently modify KRas^G12C	potent degrader	potent degrader	covalently modify KRas^G12C				DC50 ([2]; SW1573): < 100 nM; Dmax ([2]; SW1573): 35 to 70%; Percent Degradation at Indicated Concentration (μM) ([2]; SW1573, 0.03 μM): C (Percent Degradation: C ≤ 35); Percent Degradation at Indicated Concentration (μM) ([2]; SW1573, 0.1 μM): B (35 < B < 70); Percent Degradation at Indicated Concentration (μM) ([2]; SW1573, 0.3 μM): B (35 < B < 70); Percent Degradation at Indicated Concentration (μM) ([2]; SW1573, 1 μM): B (35 < B < 70); Percent Degradation at Indicated Concentration (μM) ([2]; SW1573, 3 μM): B (35 < B < 70); Percent Degradation at Indicated Concentration (μM) ([2]; SW1573, 10 μM): C (Percent Degradation: C ≤ 35); DC50 ([4]; H2030): ≥ 1000 nM; Percent Degradation at Indicated Concentration (μM) ([4]; H2030, 0.03 μM): C (Percent Degradation: C ≤ 35); Percent Degradation at Indicated Concentration (μM) ([4]; H2030, 0.1 μM): C (Percent Degradation: C ≤ 35); Percent Degradation at Indicated Concentration (μM) ([4]; H2030, 0.3 μM): C (Percent Degradation: C ≤ 35); Percent Degradation at Indicated Concentration (μM) ([4]; H2030, 1 μM): C (Percent Degradation: C ≤ 35); Percent Degradation at Indicated Concentration (μM) ([4]; H2030, 3 μM): B (35 < B < 70); Percent Degradation at Indicated Concentration (μM) ([4]; H2030, 10 μM): C (Percent Degradation: C ≤ 35); Dmax ([4]; NCI-H2030): 35 to 70%
CCC(=O)N1CCN(c2nc(NCCC(=O)N(C)CCOCCOCCOCCOCC(=O)N[C@H](C(=O)N3C[C@H](O)C[C@H]3C(=O)N[C@@H](C)c3ccc(-c4scnc4C)cc3)C(C)(C)C)nc3c(F)c(-c4cc(O)cc5ccccc45)c(Cl)cc23)CC1 [compound 6, (2S,4R)-1-((2S)-2-(tert-butyl)-21-((6-chloro-8-fluoro-7-(3-hydroxynaphthalen-1-yl)-4-(4-propionylpiperazin-1-yl)quinazolin-2-yl)amino)-18-methyl-4,19-dioxo-6,9,12,15-tetraoxa-3,18-diazahenicosanoyl)-4-hydroxy-N-((S)-1-(4-(4-methylthiazol-5-yl)phenyl)ethyl) pyrrolidine-2-carboxamide]					C (C < 25)	C (C < 25)	C (C < 25)	
C=CC(=O)N1CCN(c2nc(O[C@H](C)CN3CCN(CC4CCN(c5ccc6c(c5)C(=O)N(C5CCC(=O)NC5=O)C6=O)CC4)CC3)nc3c(F)c(-c4cc(O)cc5ccccc45)c(Cl)cc23)CC1 (stereo partly drawn) [compound 432, 5-(4-((4-((2R)-2-((4-(4-acryloylpiperazin-1-yl)-6-chloro-8-fluoro-7-(3-hydroxynaphthalen-1-yl)quinazolin-2-yl)oxy)propyl)piperazin-1-yl)methyl)piperidin-1-yl)-2-(2,6-dioxopiperidin-3-yl)isoindoline-1,3-dione]	covalently modify KRas^G12C	less potent degrader	less active degrader	covalently modify KRas^G12C				Percent Degradation at Indicated Concentration (μM) ([2]; SW1573 cells, 0.1 μM): C (Percent Degradation: C ≤ 35); Percent Degradation at Indicated Concentration (μM) ([2]; SW1573 cells, 0.3 μM): C (Percent Degradation: C ≤ 35); Percent Degradation at Indicated Concentration (μM) ([2]; SW1573 cells, 1 μM): C (Percent Degradation: C ≤ 35)
CCC(=O)N1CCN(c2nc(NCCC(=O)N(C)CCOCCOCCOCCOCCOc3ccc4c(c3)CN(C3CCC(=O)NC3=O)C4=O)nc3c(F)c(-c4cc(O)cc5ccccc45)c(Cl)cc23)CC1 (stereo not drawn) [compound 10, 3-((6-chloro-8-fluoro-7-(3-hydroxynaphthalen-1-yl)-4-(4-propionylpiperazin-1-yl)quinazolin-2-yl)amino)-N-(14-((2-(2,6-dioxopiperidin-3-yl)-1-oxoisoindolin-5-yl)oxy)-3,6,9,12-tetraoxatetradecyl)-N-methylpropanamide]					C (C < 25)	C (C < 25)	C (C < 25)	
CCC(=O)N1CCN(c2nc(NCCC(=O)N(C)CCOCCOCCOCCOCCOCC(=O)N[C@H](C(=O)N3C[C@H](O)C[C@H]3C(=O)N[C@@H](C)c3ccc(-c4scnc4C)cc3)C(C)(C)C)nc3c(F)c(-c4cc(O)cc5ccccc45)c(Cl)cc23)CC1 [compound 7, (2S,4R)-1-((2S)-2-(tert-butyl)-24-((6-chloro-8-fluoro-7-(3-hydroxynaphthalen-1-yl)-4-(4-propionylpiperazin-1-yl)quinazolin-2-yl)amino)-21-methyl-4,22-dioxo-6,9,12,15,18-pentaoxa-3,21-diazatetracosanoyl)-4-hydroxy-N-((1S)-1-(4-(4-methyl-5H-114-thiazol-5-yl)phenyl)ethyl) pyrrolidine-2-carboxamide]					C (C < 25)	C (C < 25)	C (C < 25)	
CCC(=O)N1CCN(c2nc(NCCC(=O)N(C)CCOCCOCCOCCNc3cccc4c3C(=O)N(C3CCC(=O)NC3=O)C4=O)nc3c(F)c(-c4cc(O)cc5ccccc45)c(Cl)cc23)CC1 (stereo not drawn) [compound 8, 3-((6-chloro-8-fluoro-7-(3-hydroxynaphthalen-1-yl)-4-(4-propionylpiperazin-1-yl)quinazolin-2-yl)amino)-N-(2-(2-(2-(2-((2-(2,6-dioxopiperidin-3-yl)-1,3-dioxoisoindolin-4-yl)amino)ethoxy)ethoxy)ethoxy)ethyl)-N-methylpropanamide]					C (C < 25)	C (C < 25)	C (C < 25)	
